Measured values from patent US7045624B2, “Compounds and their uses” (Conopco, Inc., priority 2002, dated 2006).

Key:
[1] = Cooling effect of synthesised compounds (test not described); conditions: ability to elicit a cooling sensation; no test details given
[2] = system: Neurons from trigeminal ganglia of Wistar rats; assay: Ca2+ response of cultured trigeminal neurons to test compounds (Fura-2 fluorescence); type: cell-based; conditions: 100 μM final test concentration; cellular Ca2+ levels, cultured rat trigeminal neurons; relative to compound 1 (icilin)
Experimental: The efficacy of different compounds according to the invention was tested in vitro, by exposing cultured neurons to the compounds and monitoring the cellular Ca^2+ levels.
The compounds were dissolved in DMSO by ultrasonication to a 0.1 M solution. 5 μl of this stock was added to 5 mg of cyclodextrin and 5 ml of 140 Na-tyrode, to achieve a 100 μM final test concentration.
Neurons from trigeminal ganglia of Wistar rats were prepared as described in U.S. Pat. No. 5,811,256. After 24 hours of cultivation, the responsiveness of the neurons to different compounds was measured according to the general procedure described by McKemy et al (Nature, Vol. 416, 2002, 52–58). The test protocol described by McKemy was modified slightly, by using the fluorescent Ca^2+ indicator Fura-2. Detection of the cellular fluorescence signals was performed by videomicroscopical analysis. The neurons were given a cold stimulus by a thermocoupling device and were subsequently tested for responsiveness to the test compounds by superfusion with solutions containing the test compounds while continuously monitoring the cellular Ca^2+ levels.
The results were recorded for compounds 1 to 3 and menthol, and are expressed below, as a percentage compared to the activity for compound 1 (icilin).

[3] = system: mucous membranes (nostrils, lips and eyelids) of the researchers; conditions: in contact with mucous membranes (nostrils, lips and eyelids), also when ingested; cited from earlier work

Row | SMILES | cooling effect [1] | Activity (% relative to Compound 1) [2] [%] | sensations of coldness [3]
1 | COc1cccc(C2=CCN(c3ccccc3O)C(=O)N2)c1 [1-(2′-hydroxyphenyl)-4-(3″-methoxyphenyl)-1,2,3,6-tetrahydropyrimidine-2-one] | good cooling effects |  | 
2 | O=C1NC(c2ccccc2)=CCN1c1ccccc1O [1-(2′-hydroxyphenyl)-4-phenyl-1,2,3,6-tetrahydropyrimidine-2-one] | good cooling effects |  | 
3 | O=C1NC(c2cccc([N+](=O)[O-])c2)=CCN1c1ccccc1C(F)(F)F [1-(2′-trifluoromethylphenyl)-4-(3″-nitrophenyl)-1,2,3,6-tetrahydropyrimidine-2-one] | good cooling effects |  | 
4 | O=C1NC(c2cccc([N+](=O)[O-])c2)=CCN1c1ccccc1 [1-phenyl-4-(3″-nitrophenyl)-1,2,3,6-tetrahydropyrimidine-2-one] | good cooling effects |  | 
5 | O=C1NC(c2ccccc2[N+](=O)[O-])=CCN1c1ccccc1O [Compound 1, 1-[2-hydroxyphenyl]-4-[2-nitrophenyl]-1,2,3,6-tetrahydropyrimidine-2-one] |  | 100 | produced sensations of coldness
6 | O=C1NC(c2cccc(Cl)c2)=CCN1c1ccccc1O [Compound 3, 1-(2′-hydroxyphenyl)-4-(3″-chlorophenyl)-1,2,3,6-tetrahydro-pyrimidine-2-one] |  | 35 | 
7 | CC1CCC(C(C)C)C(O)C1 (centres unmarked) [Menthol, 2-isopropyl-5-methyl-cyclohexanol] |  | 42 | 
